{"source": "patent US7767648B2", "about": "“Tissue specific prodrugs” (priority 2000, dated 2010)", "key": {"[1]": {"assay": "Stability of PSMA substrates in mouse plasma, 18 hour incubation, HPLC", "assay_type": "in vitro ADME", "details": "for % APA-Glu or -Asp: 18 hour incubation in mouse plasma", "text": "(§1) In order that the prodrugs can be administered systemically via the blood, their stability in sera must be sufficiently high to avoid hydrolysis or other degradative processes which may occur prior to the prodrugs reaching their target tissues. In addition to GGH activity, a human blood plasma glutamate carboxypeptidase (PGCP) that has significant sequence homology to PSMA and glutamate carboxypeptidase activity has been identified. Therefore, to assay hydrolysis by GGH and other serum carboxypeptidases like PGCP, the APA-Glu*Glu*Glu*Glu*Asp, APA-Glu*Glu*Glu*Glu*Gln, and APA-Glu*Glu*Glu*Glu*Glu substrates were incubated in human and mouse plasma and hydrolysis determined by HPLC analysis after an 18-hour incubation, as shown in Table 3. As noted, GGH efficiently hydrolyzes poly-γ-glutamate chains as well as poly-γ-glutamated folate and methotrexate. GGH, however, is unable to hydrolyze α-linked peptides.\n(§2) In Tables 1-3, to simplify identification of the type of amino acid linkages employed, α-linkages are denoted by a hyphen (for example, Glu-Glu) and all side-chain linkages are denoted by a star (for example, Glu*Glu). The column labeled “% PSMA Hydrolysis” refers to the percentage of hydrolysis of a substrate to APA-Asp or to APS-Glu by purified PSMA. The column labeled “% APA-Asp or -Glu” refers to the percentage of hydrolysis of substrate to APA-Asp or APA-Glu. The column labeled “% Prodrug Remaining” refers to the area of the HPLC peak attributable to starting material divided by the areas of HPLC peaks attributable to starting material, intermediate products, and final products. […] “ND” means “not determined,” in that the experiment was not performed."}, "[2]": {"assay": "Stability of PSMA substrates in human plasma, 18 hour incubation, HPLC", "assay_type": "in vitro ADME", "details": "for remaining at 18 h / % APA-Glu or -Asp: 18 hour incubation in human plasma; for remaining at 18 h: HPLC peak area of starting material over all peaks, read-out: % Prodrug Remaining; for % APA-Glu or -Asp: hydrolysis of substrate to APA-Asp or APA-Glu; for stability in serum (in words): species not stated", "text": "as §1, §2"}, "[3]": {"test_system": "TSU cancer cells", "assay": "Loss of clonogenic survival of TSU cancer cells after exposure to methotrexate analogs", "assay_type": "cell-based", "details": "48 hours of exposure", "text": "A number of methotrexate analogs were studied for their effect on clonogenic survival of TSU cancer cells. One such analog is L-aspartic acid, N-[4-[[(2,4-diamino-5-ethyl-6-quiazolinyl)methyl]amino]benzoyl]-sesquihydrate, also known as NSC 184692, available from the NCI Developmental Therapeutics Branch. Another compound is L-aspartic acid, N-[2-chloro-5-[[(2,4-diamino-5-methyl-6-quiazolinyl)methyl]amino]benzoyl]-dihydrate, also known as NSC 132483. Another compound is L-aspartic acid, N-[2-chloro-4-[[(2,4-diamino-6-pteridinyl)methyl]amino]benzoyl]-monohydrate, also known as NSC 134033.\nThe loss of clonogenic survival following treatment of TSU cancer cells with NSC 184692 and 132483 has been investigated after 48 hours of exposure, and the results are listed in Table 4."}}, "note": "Numbered stars: 1 amine (or outer) side, 2 acyl side, 3 side chain; on linkers, the order of the positions; unused ones are H or OH. Square brackets hold non-standard residues; d marks the D form. Peptide text beside a SMILES is read from it. γGlu = O=C(O)[C@H](CCC(=O)[*:2])N[*:1]"}
{"smiles": "O=C(O)c1cc[c]([Hg+])cc1.[OH-]", "note": "[p-hydroxymercuribenzoate, reference compound]", "values": [{"measurement": "effect of added inhibitor on hydrolysis of the substrates in plasma", "setting": "[1]; addition of the non-specific inhibitor of GGH and other cysteine proteases", "value": "complete inhibition of hydrolysis"}]}
{"smiles": "CN(Cc1cnc2nc(N)nc(N)c2n1)c1ccc(C(=O)N[C@@H](CCC(=O)N[C@@H](CCC(=O)N[C@@H](CCC(=O)N[C@@H](CC(=O)O)C(=O)N[C@@H](CCC(=O)O)C(=O)O)C(=O)O)C(=O)O)C(=O)O)cc1", "note": "[APA-Glu*Glu*Glu*Asp-Glu]", "values": [{"measurement": "remaining at 18 h", "setting": "[2]", "value": 57, "unit": "%"}, {"measurement": "% APA-Glu or -Asp", "setting": "[2]", "value": 23, "unit": "%"}, {"measurement": "% APA-Glu or -Asp", "setting": "[1]", "value": 5, "unit": "%"}]}
{"smiles": "N[C@@H](CCC(=O)N[C@@H](CCC(=O)N[C@@H](CCC(=O)N[C@@H](CC(=O)O)C(=O)N[C@@H](CCC(=O)O)C(=O)O)C(=O)O)C(=O)O)C(=O)O", "note": "[Glu*Glu*Glu*Asp-Glu] ({γGlu-γGlu-γGlu}-Asp-Glu-OH; C-terminus assumed)", "values": [{"measurement": "stability in serum (in words)", "setting": "[2]", "value": "high stability in serum"}]}
{"smiles": "CN(Cc1cnc2nc(N)nc(N)c2n1)c1ccc(C(=O)N[C@@H](CCC(=O)N[C@@H](CCC(=O)N[C@@H](CCC(=O)N[C@@H](CC(=O)O)C(=O)N[C@@H](CCC(N)=O)C(=O)O)C(=O)O)C(=O)O)C(=O)O)cc1", "note": "[APA-Glu*Glu*Glu*Asp-Gln]", "values": [{"measurement": "remaining at 18 h", "setting": "[2]", "value": 76, "unit": "%"}, {"measurement": "% APA-Glu or -Asp", "setting": "[2]", "value": 13, "unit": "%"}]}
{"smiles": "CN(Cc1cnc2nc(N)nc(N)c2n1)c1ccc(C(=O)N[C@@H](CC(=O)O)C(=O)N[C@@H](CCC(=O)N[C@@H](CCC(=O)N[C@@H](CC(=O)O)C(=O)N[C@@H](CCC(=O)O)C(=O)O)C(=O)O)C(=O)O)cc1", "note": "[APA-Asp-Glu*Glu*Asp-Glu]", "values": [{"measurement": "remaining at 18 h", "setting": "[2]", "value": 100, "unit": "%"}, {"measurement": "% APA-Glu or -Asp", "setting": "[2]", "value": 0, "unit": "%"}, {"measurement": "% APA-Glu or -Asp", "setting": "[1]", "value": 2, "unit": "%"}]}
{"smiles": "CN(Cc1cnc2nc(N)nc(N)c2n1)c1ccc(C(=O)N[C@@H](CC(=O)O)C(=O)N[C@@H](CCC(=O)O)C(=O)O)cc1", "note": "[APA-Asp-Glu]", "values": [{"measurement": "remaining at 18 h", "setting": "[2]", "value": 99, "unit": "%"}, {"measurement": "% APA-Glu or -Asp", "setting": "[2]", "value": 1, "unit": "%"}, {"measurement": "hydrolysis in human serum (in words)", "setting": "[2]; 18 hour incubation in human serum, HPLC", "value": "no significant hydrolysis"}]}
{"smiles": "NC(=O)CC[C@H](NC(=O)[C@H](CC(=O)O)NC(=O)CC[C@H](NC(=O)CC[C@H](NC(=O)CC[C@H](N)C(=O)O)C(=O)O)C(=O)O)C(=O)O", "note": "[Glu*Glu*Glu*Asp-Gln] ({γGlu-γGlu-γGlu}-Asp-Gln-OH; C-terminus assumed)", "values": [{"measurement": "stability in serum (in words)", "setting": "[2]", "value": "high stability in serum"}]}
{"smiles": "CCc1c(CNc2ccc(C(=O)N[C@@H](CC(=O)O)C(=O)O)cc2)ccc2nc(N)nc(N)c12.CCc1c(CNc2ccc(C(=O)N[C@@H](CC(=O)O)C(=O)O)cc2)ccc2nc(N)nc(N)c12.O.O.O", "note": "[NSC 184692, L-aspartic acid, N-[4-[[(2,4-diamino-5-ethyl-6-quiazolinyl)methyl]amino]benzoyl]-sesquihydrate]", "values": [{"measurement": "Loss of clonogenic survival", "setting": "[3]; 0.01 μmolar", "value": 17, "unit": "%"}, {"measurement": "Loss of clonogenic survival", "setting": "[3]; 0.05 μmolar", "value": 44, "unit": "%"}, {"measurement": "Loss of clonogenic survival", "setting": "[3]; 0.1 μmolar", "value": 57, "unit": "%"}, {"measurement": "Loss of clonogenic survival", "setting": "[3]; 0.5 μmolar", "value": 82, "unit": "%"}, {"measurement": "Loss of clonogenic survival", "setting": "[3]; 1 μmolar", "value": 88, "unit": "%"}, {"measurement": "Loss of clonogenic survival", "setting": "[3]; 5 μmolar", "value": 93, "unit": "%"}]}
{"smiles": "N[C@@H](CC(=O)O)C(=O)N[C@@H](CCC(=O)N[C@@H](CCC(=O)N[C@@H](CC(=O)O)C(=O)N[C@@H](CCC(=O)O)C(=O)O)C(=O)O)C(=O)O", "note": "[Asp-Glu*Glu*Asp-Glu] (H-D[γGlu][γGlu]DE-OH; C-terminus assumed)", "values": [{"measurement": "stability to hydrolysis in human plasma (in words)", "setting": "[2]; human plasma", "value": "completely stable to hydrolysis"}, {"measurement": "stability to hydrolysis in mouse plasma (in words)", "setting": "[1]; mouse plasma", "value": "completely stable to hydrolysis"}]}
{"smiles": "Cc1c(CNc2ccc(Cl)c(C(=O)N[C@@H](CC(=O)O)C(=O)O)c2)ccc2nc(N)nc(N)c12.O.O", "note": "[NSC 132483, L-aspartic acid, N-[2-chloro-5-[[(2,4-diamino-5-methyl-6-quiazolinyl)methyl]amino]benzoyl]-dihydrate]", "values": [{"measurement": "Loss of clonogenic survival", "setting": "[3]; 0.01 μmolar", "value": 0, "unit": "%"}, {"measurement": "Loss of clonogenic survival", "setting": "[3]; 0.05 μmolar", "value": 0, "unit": "%"}, {"measurement": "Loss of clonogenic survival", "setting": "[3]; 0.1 μmolar", "value": 14, "unit": "%"}, {"measurement": "Loss of clonogenic survival", "setting": "[3]; 0.5 μmolar", "value": 39, "unit": "%"}, {"measurement": "Loss of clonogenic survival", "setting": "[3]; 1 μmolar", "value": 50, "unit": "%"}, {"measurement": "Loss of clonogenic survival", "setting": "[3]; 5 μmolar", "value": 78, "unit": "%"}]}
